According to PubChem BioAssay AID248 (DTP/NCI, 2004):
Values joined by “and” are separate entries in the source; they are usually repeats but may differ in a detail not shown here. Equal values may be shown once. Toxic doses and inconclusive results are not listed. Rule as the data show it: active = T/C of 150% or more; inactive = T/C below 125%.

Tested on: L1210 leukemia ip in BDF1 mice, survival T/C
Experiment: NCI In Vivo Anticancer Drug Screen. Data for tumor model L1210 Leukemia (intraperitoneal) in B6D2F1 (BDF1) mice
Details: endpoint: mean survival time, higher = longer survival
Method in brief: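 Antitumor effect is assessed in tumor-bearing animals. Survival in the compound arm is compared with a vehicle-dosed control arm and expressed as their quotient.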

[1] = dose: 12.5 mg/kg/injection, schedule: Q01DX009 (ip), vehicle: saline with Tween-80
[2] = dose: 25.0 mg/kg/injection, schedule: Q01DX009 (ip), vehicle: saline with Tween-80
[3] = dose: 50.0 mg/kg/injection, schedule: Q01DX009 (ip), vehicle: saline with Tween-80
[4] = dose: 100.0 mg/kg/injection, schedule: Q01DX009 (ip), vehicle: saline with Tween-80
[5] = dose: 200.0 mg/kg/injection, schedule: Q01DX009 (ip), vehicle: saline with Tween-80
[6] = dose: 100.0 mg/kg/injection, schedule: Q01DX001 (ip), vehicle: saline
[7] = dose: 200.0 mg/kg/injection, schedule: Q01DX001 (ip), vehicle: saline
[8] = dose: 400.0 mg/kg/injection, schedule: Q01DX001 (ip), vehicle: saline
[9] = dose: 100.0 mg/kg/injection, schedule: Q01DX009 (ip), vehicle: Klucel (hydroxypropylcellulose) (HPC)
[10] = dose: 200.0 mg/kg/injection, schedule: Q01DX009 (ip), vehicle: Klucel (hydroxypropylcellulose) (HPC)
[11] = dose: 400.0 mg/kg/injection, schedule: Q01DX009 (ip), vehicle: Klucel (hydroxypropylcellulose) (HPC)
[12] = dose: 100.0 mg/kg/injection, schedule: Q04DX003 (ip), vehicle: saline with Tween-80
[13] = dose: 200.0 mg/kg/injection, schedule: Q04DX003 (ip), vehicle: saline with Tween-80
[14] = dose: 100.0 mg/kg/injection, schedule: Q04DX003 (ip), vehicle: saline
[15] = dose: 200.0 mg/kg/injection, schedule: Q04DX003 (ip), vehicle: saline
[16] = dose: 25.0 mg/kg/injection, schedule: Q01DX009 (ip), vehicle: saline
[17] = dose: 25.0 mg/kg/injection, schedule: Q04DX003 (ip), vehicle: saline
[18] = dose: 50.0 mg/kg/injection, schedule: Q01DX009 (ip), vehicle: saline
[19] = dose: 50.0 mg/kg/injection, schedule: Q04DX003 (ip), vehicle: saline
[20] = dose: 100.0 mg/kg/injection, schedule: Q01DX009 (ip), vehicle: saline
[21] = dose: 100.0 mg/kg/injection, schedule: Q04DX003 (ip), vehicle: Klucel (hydroxypropylcellulose) (HPC)
[22] = dose: 200.0 mg/kg/injection, schedule: Q04DX003 (ip), vehicle: Klucel (hydroxypropylcellulose) (HPC)
[23] = dose: 400.0 mg/kg/injection, schedule: Q04DX003 (ip), vehicle: Klucel (hydroxypropylcellulose) (HPC)
[24] = dose: 400.0 mg/kg/injection, schedule: Q01DX009 (ip), vehicle: saline with Tween-80
[25] = dose: 400.0 mg/kg/injection, schedule: Q04DX003 (ip), vehicle: saline with Tween-80

Measured: T/C

CCSC1=C(SCC)C(=O)C(SCC)=C(SCC)C1=O
inactive: dose: 3.1 mg/kg/injection, schedule: Q01DX009 (ip), vehicle: saline with Tween-80 110 % of control | dose: 6.25 mg/kg/injection, schedule: Q01DX009 (ip), vehicle: saline with Tween-80 105 % of control | [1] 105 % of control | [2] 91 % of control | [3] 103 % of control

CCCCCCCCCCCCCCCC(=O)Nc1ccc(Cl)c(Cl)c1
inactive: dose: 50.0 mg/kg/injection, schedule: Q04DX003 (ip), vehicle: carboxymethylcellulose (CMC) 87 % of control | dose: 100.0 mg/kg/injection, schedule: Q01DX001 (ip), vehicle: carboxymethylcellulose (CMC) 89 % of control | dose: 100.0 mg/kg/injection, schedule: Q01DX009 (ip), vehicle: carboxymethylcellulose (CMC) 102 % of control and 89 % of control | dose: 100.0 mg/kg/injection, schedule: Q04DX002 (ip), vehicle: other 92 % of control and 101 % of control | dose: 100.0 mg/kg/injection, schedule: Q04DX003 (ip), vehicle: carboxymethylcellulose (CMC) 95 % of control | dose: 200.0 mg/kg/injection, schedule: Q01DX001 (ip), vehicle: carboxymethylcellulose (CMC) 90 % of control | dose: 200.0 mg/kg/injection, schedule: Q01DX009 (ip), vehicle: carboxymethylcellulose (CMC) 96 % of control and 86 % of control | dose: 200.0 mg/kg/injection, schedule: Q04DX002 (ip), vehicle: other 93 % of control and 89 % of control | dose: 200.0 mg/kg/injection, schedule: Q04DX003 (ip), vehicle: carboxymethylcellulose (CMC) 87 % of control | dose: 400.0 mg/kg/injection, schedule: Q01DX009 (ip), vehicle: carboxymethylcellulose (CMC) 93 % of control and 86 % of control | dose: 400.0 mg/kg/injection, schedule: Q04DX002 (ip), vehicle: other 93 % of control and 94 % of control

CC(=O)Nc1ccc(C(C)(C)CC(=O)O)cc1[N+](=O)[O-]
inactive: [3] 90 % of control | [4] 87 % of control | [5] 87 % of control

Cc1cn(C2OC(CO)C(O[Si](C)(C)C)C(O[Si](C)(C)C)C2O[Si](C)(C)C)c(=O)[nH]c1=O (configuration not stated)
inactive: [6] 97 % of control | [7] 94 % of control | [8] 97 % of control

O=C(C1CC1c1ccccc1)N1CCN(c2ccccc2)CC1 (configuration not stated)
inactive: [9] 98 % of control | [10] 90 % of control | [11] 100 % of control

COc1ccccc1/C=C1\SC(=O)N(CCNC(C)=O)C1=O
inactive: [6] 98 % of control | [7] 100 % of control | [8] 96 % of control

O=[N+]([O-])c1ccc(/C=N\Nc2ccccn2)s1
inactive: [12] 93 % of control | [13] 93 % of control

CC1(CO)C2CCC(O)C1C2 (configuration not stated)
inactive: dose: 75.0 mg/kg/injection, schedule: Q01DX009 (ip), vehicle: saline 103 % of control | dose: 75.0 mg/kg/injection, schedule: Q04DX003 (ip), vehicle: saline 94 % of control | dose: 150.0 mg/kg/injection, schedule: Q01DX009 (ip), vehicle: saline 97 % of control | dose: 150.0 mg/kg/injection, schedule: Q04DX003 (ip), vehicle: saline 95 % of control | dose: 300.0 mg/kg/injection, schedule: Q01DX009 (ip), vehicle: saline 100 % of control | dose: 300.0 mg/kg/injection, schedule: Q04DX003 (ip), vehicle: saline 102 % of control

CS(=O)(=O)N(CC(=O)O)Cc1cccnc1
inactive: dose: 100.0 mg/kg/injection, schedule: Q01DX009 (ip), vehicle: other 101 % of control | dose: 100.0 mg/kg/injection, schedule: Q04DX003 (ip), vehicle: other 106 % of control | dose: 200.0 mg/kg/injection, schedule: Q01DX009 (ip), vehicle: other 101 % of control | dose: 200.0 mg/kg/injection, schedule: Q04DX003 (ip), vehicle: other 93 % of control | dose: 400.0 mg/kg/injection, schedule: Q01DX009 (ip), vehicle: other 105 % of control | dose: 400.0 mg/kg/injection, schedule: Q04DX003 (ip), vehicle: other 95 % of control

COc1ccc(C=Nc2ccc(O)cc2)cc1
inactive: [6] 102 % of control | [14] 101 % of control | [7] 100 % of control | [15] 108 % of control | [8] 103 % of control | dose: 400.0 mg/kg/injection, schedule: Q04DX003 (ip), vehicle: saline 101 % of control

CC(C)NNC(=O)C(C)N (configuration not stated)
inactive: dose: 12.5 mg/kg/injection, schedule: Q01DX009 (ip), vehicle: saline 87 % of control | [16] 90 % of control | [17] 89 % of control | [18] 92 % of control | [19] 103 % of control | [20] 92 % of control | [14] 89 % of control | dose: 200.0 mg/kg/injection, schedule: Q01DX009 (ip), vehicle: saline 93 % of control | [15] 86 % of control

COc1c(NC(=O)CC(C)=O)cccc1NC(=O)CC(C)=O
inactive: [9] 108 % of control | [21] 100 % of control | [10] 111 % of control | [22] 103 % of control | [11] 97 % of control | [23] 94 % of control

CCCCCCC(O)C[N+](=O)[O-] (configuration not stated)
inactive: [1] 100 % of control | [2] 98 % of control | [3] 93 % of control | [12] 107 % of control | [13] 86 % of control

CCC(=O)OC1CCC2(C)C(=CCC3C2CCC2(C)C(C(C)CCCC(C)C)CCC32)C1 (configuration not stated)
inactive: dose: 100.0 mg/kg/injection, schedule: Q01DX001 (ip), vehicle: other 91 % of control | dose: 200.0 mg/kg/injection, schedule: Q01DX001 (ip), vehicle: other 91 % of control

CNC(=O)n1cnc(N)n1 (tested in a mixture with another compound)
inactive: [9] 96 % of control | [10] 103 % of control

Cc1ccc(NC(=O)Sc2ccc(Cl)cc2)c([N+](=O)[O-])c1
inactive: dose: 50.0 mg/kg/injection, schedule: Q01DX009 (ip), vehicle: Klucel (hydroxypropylcellulose) (HPC) 109 % of control | [9] 98 % of control | [21] 102 % of control | [10] 106 % of control | [22] 104 % of control | [23] 109 % of control

CC12CCCC=C1CC(C(C)(C)O)CC2 (configuration not stated)
inactive: [3] 96 % of control | [4] 100 % of control | [5] 100 % of control

CCOC(=O)CNC(=O)C(CSCc1cccs1)NC(=O)OCc1ccccc1 (configuration not stated)
inactive: [4] 100 % of control | [5] 94 % of control | [24] 90 % of control

O=C(Nc1cccc(F)c1)N(C1CCCCC1)C1CCCCC1
inactive: dose: 6.25 mg/kg/injection, schedule: Q01DX009 (ip), vehicle: gum acacia 96 % of control | dose: 12.5 mg/kg/injection, schedule: Q01DX009 (ip), vehicle: gum acacia 100 % of control | dose: 50.0 mg/kg/injection, schedule: Q01DX009 (ip), vehicle: gum acacia 89 % of control | dose: 400.0 mg/kg/injection, schedule: Q01DX009 (ip), vehicle: gum acacia 91 % of control

C=C(Br)CNS(=O)(=O)c1ccc(OC)cc1
inactive: [12] 92 % of control | [13] 101 % of control | [25] 94 % of control

CCOC(=O)CC(=O)N/N=C(/C)C(=O)OCC
inactive: [4] 94 % of control | [12] 97 % of control | [5] 87 % of control | [13] 105 % of control | [24] 97 % of control | [25] 105 % of control

O=C(CCN1CCCCC1)c1cccc([N+](=O)[O-])c1
inactive: dose: 12.0 mg/kg/injection, schedule: Q04DX003 (ip), vehicle: saline 93 % of control | [16] 111 % of control | [17] 101 % of control | [18] 103 % of control | [19] 95 % of control | [20] 103 % of control

S=C(c1ccccc1Cl)N1CCOCC1
inactive: [6] 104 % of control | [7] 102 % of control | [8] 98 % of control

O=C(Nc1cccnc1)C1=Cc2ccccc2OC1
inactive: [4] 95 % of control | [12] 103 % of control | [5] 94 % of control | [13] 98 % of control | [24] 105 % of control | [25] 107 % of control
